# Peptide text beside a SMILES is read from it. * marks the point of attachment. AMC = Cc1cc(=O)oc2cc(N*)ccc12
# Columns and labels:
# Type in all cases: ADME
# [1] = Kinetic Constant of Ac-YVAD-AMC for compound
# [2] = Vmax value of Ac-YVAD-AMC substrate for compound
# [3] = Km value of Ac-YVAD-AMC substrate for compound
# [4] = Kinetic Constant of Ac-WVAD-AMC for compound
# [5] = Kinetic Constant of Ac-WEAD-AMC for compound
smiles,measurement,setting,value
CC(=O)NCC(=O)NCC(=O)N[C@@H](C)C(=O)N[C@@H](CC(=O)O)C(=O)Nc1ccc2c(C)cc(=O)oc2c1 (Ac-GGAD-{AMC}),Vmax / Km,[1],53 FU min-1 uM-1
same,Vmax,[2],1060 FU uM-1
same,Km,[3],20 µM
same,Km,[4],27 µM
same,Vmax,[4],1300 FU uM-1
same,Vmax / Km,[4],48 FU min-1 uM-1
same,Km,[5],9 µM
same,Vmax,[5],1840 FU uM-1
same,Vmax / Km,[5],204 FU min-1 uM-1

# — ChEMBL document CHEMBL1131750, “A substrate combinatorial array for caspases” (Bioorg Med Chem Lett, 1999)
